Data as given in ChEMBL document CHEMBL3351958, “Structure-activity relationships of sugar-based peptidomimetics as modulators of amyloid β-peptide early oligomerization and fibrillization” (Eur J Med Chem, 2014).
The source made the active and inactive calls. The calls are words filed in the database; no cut-off is given here. Numbered stars: 1 amine (or outer) side, 2 acyl side, 3 side chain; on linkers, the order of the positions; unused ones are H or OH. Square brackets hold non-standard residues; d marks the D form. Peptide text beside a SMILES is read from it. * marks the point of attachment. X1 = O=C(CCOC[C@H]1O[C@@H](OCCCN[*:1])[C@H](O)[C@@H](O)[C@@H]1O)[*:2]; X2 = O=C(CCOC[C@H]1O[C@@H](OCCN[*:1])[C@H](O)[C@@H](O)[C@@H]1O)[*:2]; X4 = O=C(CCOC[C@H]1O[C@H](OCCCN[*:1])[C@H](O)[C@@H](O)[C@@H]1O)[*:2]; X3 = O=C(CCOC[C@H]1O[C@H](OCCN[*:1])[C@H](O)[C@@H](O)[C@@H]1O)[*:2]; Boc = CC(C)(C)OC(=O)*

How the values were obtained:
[1] = target: Amyloid-beta precursor protein (Homo sapiens) (UniProt P05067); test: Inhibition of amyloid beta (1 to 42) (unknown origin) oligomerization assessed as fold change in half-life of aggregation extension/reduction at 1:10 Abeta:compound ratio by thioflavin T assay based fluorescence microscopy
[2] = target: Amyloid-beta precursor protein (Homo sapiens) (UniProt P05067); test: Inhibition of amyloid beta (1 to 42) (unknown origin) oligomerization assessed as reduction in intensity of experimental fluorescence plateau at 1:10 Abeta:compound ratio by thioflavin T assay based fluorescence microscopy; design: scale not given: the % may be the effect or the level left
[3] = target: Amyloid-beta precursor protein (Homo sapiens) (UniProt P05067); test: Inhibition of amyloid beta (1 to 42) (unknown origin) oligomerization assessed as fold change in half-life of aggregation extension/reduction at 1:1 Abeta:compound ratio by thioflavin T assay based fluorescence microscopy
[4] = target: Amyloid-beta precursor protein (Homo sapiens) (UniProt P05067); test: Inhibition of amyloid beta (1 to 42) (unknown origin) oligomerization assessed as reduction in intensity of experimental fluorescence plateau at 1:1 Abeta:compound ratio by thioflavin T assay based fluorescence microscopy
[5] = target: Amyloid-beta precursor protein (Homo sapiens) (UniProt P05067); test: Inhibition of amyloid beta (1 to 42) (unknown origin) oligomerization assessed as increase in intensity of experimental fluorescence plateau at 1:10 Abeta:compound ratio by thioflavin T assay based fluorescence microscopy; design: scale not given: the % may be the effect or the level left
[6] = target: Amyloid-beta precursor protein (Homo sapiens) (UniProt P05067); test: Inhibition of amyloid beta (1 to 42) (unknown origin) fibril formation at 100 uM after 4 to 24 hrs by transmission electron microscopy
[7] = target: Amyloid-beta precursor protein (Homo sapiens) (UniProt P05067); test: Inhibition of amyloid beta (1 to 42) (unknown origin) oligomer formation at 1:1 Abeta:compound ratio after 4 to 6 hrs by capillary electrophoresis
[8] = target: Amyloid-beta precursor protein (Homo sapiens) (UniProt P05067); test: Inhibition of amyloid beta (1 to 42) (unknown origin) oligomer formation at 1:2 Abeta:compound ratio after 4 to 6 hrs by capillary electrophoresis
[9] = target: Amyloid-beta precursor protein (Homo sapiens) (UniProt P05067); test: Inhibition of amyloid beta (1 to 42) (unknown origin) oligomer formation at 1:10 Abeta:compound ratio after 4 to 6 hrs by capillary electrophoresis
[10] = target: Amyloid-beta precursor protein (Homo sapiens) (UniProt P05067); test: Inhibition of amyloid beta (1 to 42) (unknown origin) oligomerization assessed as fold change in half-life of aggregation extension/reduction at 1:5 Abeta:compound ratio by thioflavin T assay based fluorescence microscopy
[11] = target: Amyloid-beta precursor protein (Homo sapiens) (UniProt P05067); test: Inhibition of amyloid beta (1 to 42) (unknown origin) oligomerization assessed as reduction in intensity of experimental fluorescence plateau at 1:5 Abeta:compound ratio by thioflavin T assay based fluorescence microscopy; design: scale not given: the % may be the effect or the level left
[12] = target: Amyloid-beta precursor protein (Homo sapiens) (UniProt P05067); test: Inhibition of amyloid beta (1 to 42) (unknown origin) oligomer formation at 100 uM after 4 to 6 hrs by capillary electrophoresis
[13] = target: Amyloid-beta precursor protein (Homo sapiens) (UniProt P05067); test: Inhibition of amyloid beta (1 to 42) (unknown origin) oligomer formation assessed as monomer stabilization at 100 uM after 4 to 6 hrs by capillary electrophoresis

Sequence of Amyloid-beta precursor protein (Homo sapiens) (P05067 whole entry): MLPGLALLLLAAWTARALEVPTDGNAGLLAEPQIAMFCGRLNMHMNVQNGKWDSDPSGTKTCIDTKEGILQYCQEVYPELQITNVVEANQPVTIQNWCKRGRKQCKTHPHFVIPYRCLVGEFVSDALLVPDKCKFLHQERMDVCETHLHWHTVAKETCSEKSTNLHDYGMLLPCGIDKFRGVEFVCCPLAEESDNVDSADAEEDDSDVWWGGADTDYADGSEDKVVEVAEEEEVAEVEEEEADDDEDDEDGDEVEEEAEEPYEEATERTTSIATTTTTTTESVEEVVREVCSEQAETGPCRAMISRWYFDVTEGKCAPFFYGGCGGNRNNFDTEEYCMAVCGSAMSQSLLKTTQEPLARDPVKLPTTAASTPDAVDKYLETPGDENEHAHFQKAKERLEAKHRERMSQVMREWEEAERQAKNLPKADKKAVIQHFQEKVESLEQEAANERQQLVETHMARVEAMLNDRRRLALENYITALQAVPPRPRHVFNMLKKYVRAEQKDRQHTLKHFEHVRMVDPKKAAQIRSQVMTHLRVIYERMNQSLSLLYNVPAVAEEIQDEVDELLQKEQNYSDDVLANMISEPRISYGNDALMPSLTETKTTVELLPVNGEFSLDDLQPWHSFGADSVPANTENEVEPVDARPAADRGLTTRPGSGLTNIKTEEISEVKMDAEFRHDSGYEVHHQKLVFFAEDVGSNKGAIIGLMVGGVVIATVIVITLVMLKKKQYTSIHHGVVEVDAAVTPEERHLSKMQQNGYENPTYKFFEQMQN

SMILES	fold change (FC) [1]	Activity [2]	fold change in aggregation half-life [3]	inhibition [4]	Activity [5] [%]	inhibition [6]	inhibition [7]	inhibition [8]	inhibition [9]	fold change (FC) [10]	Activity [11] [%]	inhibition [12]	inhibition [13]
COC(=O)[C@H](CC(C)C)NC(=O)[C@@H](NC(=O)CCOC[C@H]1OC(O)[C@H](O)[C@@H](O)[C@@H]1O)C(C)C (stereo partly drawn)	inactive	inactive	inactive	inactive	–	–	–	–	–	–	–	–	–
COC(=O)[C@H](CC(C)C)NC(=O)[C@@H](NC(=O)CCOC[C@H]1OC(O)[C@H](OCc2ccccc2)[C@@H](OCc2ccccc2)[C@@H]1OCc1ccccc1)C(C)C (stereo partly drawn)	0.8	–	inactive	inactive	14	–	–	–	–	–	–	–	–
COC(=O)[C@H](CC(C)C)NC(=O)[C@@H](NC(=O)CCOC[C@H]1O[C@@H](OCCCNC(=O)[C@@H](NC(=O)[C@H](C)NC(=O)OC(C)(C)C)C(C)C)[C@H](OC(C)=O)[C@@H](OC(C)=O)[C@@H]1OC(C)=O)C(C)C	inactive	inactive	inactive	inactive	–	–	–	–	–	–	–	–	–
COC(=O)[C@H](CC(C)C)NC(=O)[C@@H](NC(=O)CCOC[C@H]1O[C@@H](OCCCNC(=O)[C@@H](NC(=O)[C@H](C)NC(=O)OC(C)(C)C)C(C)C)[C@H](OCc2ccccc2)[C@@H](OCc2ccccc2)[C@@H]1OCc1ccccc1)C(C)C	0.7	–	inactive	inactive	27	Active	inactive	Active	–	–	–	–	–
COC(=O)[C@H](CC(C)C)NC(=O)[C@@H](NC(=O)CCOC[C@H]1O[C@@H](OCCNC(=O)[C@@H](NC(=O)[C@H](C)NC(=O)OC(C)(C)C)C(C)C)[C@H](OCc2ccccc2)[C@@H](OCc2ccccc2)[C@@H]1OCc1ccccc1)C(C)C	0.8	–	inactive	inactive	38	–	–	–	–	–	–	–	–
COC(=O)[C@H](CC(C)C)NC(=O)[C@@H](NC(=O)CCOC[C@H]1O[C@H](OCCNC(=O)[C@@H](NC(=O)[C@H](C)NC(=O)OC(C)(C)C)C(C)C)[C@H](OC(C)=O)[C@@H](OC(C)=O)[C@@H]1OC(C)=O)C(C)C	inactive	inactive	inactive	inactive	–	–	–	–	–	–	–	–	–
OC[C@H]1OC(O)[C@H](O)[C@@H](O)[C@@H]1O (stereo partly drawn)	inactive	inactive	inactive	inactive	–	–	–	–	–	–	–	–	–
COC(=O)[C@H](CC(C)C)NC(=O)[C@@H](NC(=O)CCOC[C@H]1O[C@@H](OCCCNC(=O)[C@@H](NC(=O)[C@H](C)NC(=O)OC(C)(C)C)C(C)C)[C@H](O)[C@@H](O)[C@@H]1O)C(C)C (Boc-AV[X1]VL-OMe)	1.9	37%	inactive	inactive	–	inactive	inactive	–	inactive	–	–	–	–
COC(=O)[C@H](CC(C)C)NC(=O)[C@@H](NC(=O)CCOC[C@H]1O[C@@H](OCCNC(=O)[C@@H](NC(=O)[C@H](C)NC(=O)OC(C)(C)C)C(C)C)[C@H](O)[C@@H](O)[C@@H]1O)C(C)C (Boc-AV[X2]VL-OMe)	1.8	29%	inactive	inactive	–	–	–	–	–	–	–	–	–
COC(=O)[C@H](CC(C)C)NC(=O)[C@@H](NC(=O)CCOC[C@H]1O[C@H](OCCNC(=O)[C@@H](NC(=O)[C@H](C)NC(=O)OC(C)(C)C)C(C)C)[C@H](O)[C@@H](O)[C@@H]1O)C(C)C (Boc-AV[X3]VL-OMe)	inactive	inactive	inactive	inactive	–	–	–	–	–	–	–	–	–
COC(=O)[C@H](CC(C)C)NC(=O)[C@@H](NC(=O)CCOC[C@H]1O[C@H](OCCCNC(=O)[C@@H](NC(=O)[C@H](C)NC(=O)OC(C)(C)C)C(C)C)[C@H](O)[C@@H](O)[C@@H]1O)C(C)C (Boc-AV[X4]VL-OMe)	inactive	inactive	inactive	inactive	–	–	–	–	–	–	–	–	–
COC(=O)[C@H](CC(C)C)NC(=O)[C@@H](NC(=O)OC(C)(C)C)C(C)C (Boc-Val-Leu-OMe)	inactive	inactive	inactive	inactive	–	–	–	–	–	–	–	–	–
COC(=O)[C@H](CC(C)C)NC(=O)[C@@H](NC(=O)CCOC[C@H]1O[C@@H](OCCCNC(=O)[C@@H](NC(=O)[C@H](C)N)C(C)C)[C@H](O)[C@@H](O)[C@@H]1O)C(C)C (H-AV[X1]VL-OMe)	2.8	56%	inactive	inactive	–	Active	Active	–	Active	2.1	40	Active	Active
COC(=O)[C@H](CC(C)C)NC(=O)[C@@H](NC(=O)CCOC[C@H]1O[C@@H](OCCNC(=O)[C@@H](NC(=O)[C@H](C)N)C(C)C)[C@H](O)[C@@H](O)[C@@H]1O)C(C)C (H-AV[X2]VL-OMe)	inactive	inactive	inactive	inactive	–	–	–	–	–	–	–	–	–
COC(=O)[C@H](CC(C)C)NC(=O)[C@@H](N)C(C)C (H-Val-Leu-OMe)	inactive	inactive	inactive	inactive	–	–	–	–	–	–	–	–	–
